Results reported in patent US4990499A, “Anti-herpes simplex virus activity of 5-alkoxymethyl-2'-deoxycytidimes and their 5-monophosphates” (priority 1989, dated 1991).
“Also recorded” adds a separate entry of the source.

How the values were obtained:
[1] = system: Nc1ccn([C@H]2C[C@H](O)[C@@H](COP(=O)(O)OP(=O)(O)OP(=O)(O)O)O2)c(=O)n1; assay: Kinetic analysis / inhibition of HSV-1 DNA polymerase; assay type: biochemical; details: other: dCTP
Protocol: (§1) The inhibition of HSV-1 and human DNA polymerase alpha by MMdCTP was studied and the results shown graphically in FIG. 16. Assay conditions were specific for each enzyme and each assay was performed in triplicate.

[2] = target: T1, HSV-1 DNA Polymerase (Human herpesvirus 1, UniProt P04293); assay: In vitro DNA synthesis by HSV-1 DNA polymerase ([3H]dAMP incorporation); assay type: biochemical, Herpes simplex virus type 1
T1 sequence (P04293 whole entry): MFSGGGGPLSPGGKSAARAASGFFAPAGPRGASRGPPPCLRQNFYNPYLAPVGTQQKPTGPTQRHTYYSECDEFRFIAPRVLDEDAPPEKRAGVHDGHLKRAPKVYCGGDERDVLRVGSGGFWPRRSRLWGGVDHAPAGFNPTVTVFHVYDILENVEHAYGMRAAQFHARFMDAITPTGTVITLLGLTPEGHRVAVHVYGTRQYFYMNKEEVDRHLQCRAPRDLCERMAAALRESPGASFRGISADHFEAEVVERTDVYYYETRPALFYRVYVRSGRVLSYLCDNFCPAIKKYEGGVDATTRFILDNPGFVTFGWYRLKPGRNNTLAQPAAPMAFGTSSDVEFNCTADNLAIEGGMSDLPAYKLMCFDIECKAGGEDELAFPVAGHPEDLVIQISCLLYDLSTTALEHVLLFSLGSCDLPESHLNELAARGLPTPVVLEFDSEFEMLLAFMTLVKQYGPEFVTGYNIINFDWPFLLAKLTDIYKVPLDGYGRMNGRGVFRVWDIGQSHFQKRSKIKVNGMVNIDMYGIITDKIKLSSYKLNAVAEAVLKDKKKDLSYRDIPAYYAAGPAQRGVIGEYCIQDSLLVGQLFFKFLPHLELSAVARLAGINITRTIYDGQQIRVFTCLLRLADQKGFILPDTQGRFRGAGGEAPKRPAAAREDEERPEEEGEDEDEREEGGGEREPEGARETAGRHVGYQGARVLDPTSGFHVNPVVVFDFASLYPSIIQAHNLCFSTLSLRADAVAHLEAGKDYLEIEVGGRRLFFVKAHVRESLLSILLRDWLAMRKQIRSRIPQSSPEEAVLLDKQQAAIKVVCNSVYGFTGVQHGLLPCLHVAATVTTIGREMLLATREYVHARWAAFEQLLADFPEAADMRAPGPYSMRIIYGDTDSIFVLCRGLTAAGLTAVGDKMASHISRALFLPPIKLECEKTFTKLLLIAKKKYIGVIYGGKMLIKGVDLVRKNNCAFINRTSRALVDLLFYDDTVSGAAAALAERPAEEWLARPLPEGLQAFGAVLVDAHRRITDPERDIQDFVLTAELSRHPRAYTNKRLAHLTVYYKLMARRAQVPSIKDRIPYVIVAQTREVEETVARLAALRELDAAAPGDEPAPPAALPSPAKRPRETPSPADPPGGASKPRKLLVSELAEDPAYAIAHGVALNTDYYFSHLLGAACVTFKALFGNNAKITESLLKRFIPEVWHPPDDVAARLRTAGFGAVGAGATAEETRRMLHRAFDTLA
Protocol: The relative in vitro DNA synthesis by HSV-1 DNA Polymerase using dCTP or MMdCTP as the rate limiting substrate was determined. The synthesis was followed by assaying an incorporation of tritium labelled dAMP.
+ unlabelled dNTP concentration 10 μM
++ Radio labelled [^3 H]dAMP conc 0.2 μM
*One hundred percent activity represents 27355 cpm of [^3 H]dAMP
(§2) The number of pmoles of [^3 H] dAMP incorporated into control samples (`O`MMdCTP) was subtracted from pmoles of test samples. Other nucleotides,dATP, dTTP and dGTP were in excess (10 μm). Each assay was performed in triplicate.
(§3) ^+ unlabeled dNTP concentration (10 μM).
(§4) ^++ 0.2 μM of [^3 H]dATP was used in each assay.

[3] = target: E. coli DNA Polymerase 1 (Escherichia coli, UniProt P00582); assay: In vitro DNA synthesis by E. coli DNA polymerase 1 ([3H]dAMP incorporation); assay type: biochemical
Sequence of E. coli DNA Polymerase 1 (P00582 whole entry): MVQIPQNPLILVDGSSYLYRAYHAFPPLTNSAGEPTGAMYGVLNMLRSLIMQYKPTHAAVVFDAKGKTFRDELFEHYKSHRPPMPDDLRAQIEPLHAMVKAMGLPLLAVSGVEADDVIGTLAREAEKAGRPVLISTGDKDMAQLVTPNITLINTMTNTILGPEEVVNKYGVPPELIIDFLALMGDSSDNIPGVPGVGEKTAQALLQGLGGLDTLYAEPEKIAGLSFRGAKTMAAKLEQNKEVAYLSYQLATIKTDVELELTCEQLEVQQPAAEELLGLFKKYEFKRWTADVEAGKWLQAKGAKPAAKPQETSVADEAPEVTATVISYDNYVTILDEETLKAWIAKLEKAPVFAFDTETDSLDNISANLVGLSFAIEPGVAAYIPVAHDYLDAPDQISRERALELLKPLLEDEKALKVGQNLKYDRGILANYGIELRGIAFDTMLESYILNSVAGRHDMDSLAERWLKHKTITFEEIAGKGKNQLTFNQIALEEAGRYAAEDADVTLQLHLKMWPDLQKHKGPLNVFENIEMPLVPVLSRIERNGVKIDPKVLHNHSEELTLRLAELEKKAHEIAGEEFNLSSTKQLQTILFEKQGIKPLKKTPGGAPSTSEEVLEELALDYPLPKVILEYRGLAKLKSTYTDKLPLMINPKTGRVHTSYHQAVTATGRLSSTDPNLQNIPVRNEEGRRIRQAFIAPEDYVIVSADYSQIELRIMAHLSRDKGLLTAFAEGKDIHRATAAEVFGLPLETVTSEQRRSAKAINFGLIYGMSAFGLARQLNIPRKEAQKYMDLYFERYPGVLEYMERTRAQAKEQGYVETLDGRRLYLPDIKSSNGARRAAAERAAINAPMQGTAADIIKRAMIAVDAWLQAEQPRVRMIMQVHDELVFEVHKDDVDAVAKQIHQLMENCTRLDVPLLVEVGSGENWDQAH
Protocol: ^a Enzymatic assays were carried out with 1 unit of Sigma E. coli DNA
Polymerase 1. dTTP, dGTP and [^3 H] dATP were non limiting (5 μM).
^b Values obtained are net after subtracting "0" samples which did no
^c Amount of NMeMMdCTP used with each concentration of dCTP was 0.625

[4] = target: T2, human DNA polymerase alpha (Homo sapiens, UniProt P09884); assay: In vitro DNA synthesis by human DNA polymerase alpha ([3H]dAMP incorporation); assay type: biochemical; details: for incorporation into DNA / substrate: Human α-DNA polymerase
T2 sequence (P09884 1-1462): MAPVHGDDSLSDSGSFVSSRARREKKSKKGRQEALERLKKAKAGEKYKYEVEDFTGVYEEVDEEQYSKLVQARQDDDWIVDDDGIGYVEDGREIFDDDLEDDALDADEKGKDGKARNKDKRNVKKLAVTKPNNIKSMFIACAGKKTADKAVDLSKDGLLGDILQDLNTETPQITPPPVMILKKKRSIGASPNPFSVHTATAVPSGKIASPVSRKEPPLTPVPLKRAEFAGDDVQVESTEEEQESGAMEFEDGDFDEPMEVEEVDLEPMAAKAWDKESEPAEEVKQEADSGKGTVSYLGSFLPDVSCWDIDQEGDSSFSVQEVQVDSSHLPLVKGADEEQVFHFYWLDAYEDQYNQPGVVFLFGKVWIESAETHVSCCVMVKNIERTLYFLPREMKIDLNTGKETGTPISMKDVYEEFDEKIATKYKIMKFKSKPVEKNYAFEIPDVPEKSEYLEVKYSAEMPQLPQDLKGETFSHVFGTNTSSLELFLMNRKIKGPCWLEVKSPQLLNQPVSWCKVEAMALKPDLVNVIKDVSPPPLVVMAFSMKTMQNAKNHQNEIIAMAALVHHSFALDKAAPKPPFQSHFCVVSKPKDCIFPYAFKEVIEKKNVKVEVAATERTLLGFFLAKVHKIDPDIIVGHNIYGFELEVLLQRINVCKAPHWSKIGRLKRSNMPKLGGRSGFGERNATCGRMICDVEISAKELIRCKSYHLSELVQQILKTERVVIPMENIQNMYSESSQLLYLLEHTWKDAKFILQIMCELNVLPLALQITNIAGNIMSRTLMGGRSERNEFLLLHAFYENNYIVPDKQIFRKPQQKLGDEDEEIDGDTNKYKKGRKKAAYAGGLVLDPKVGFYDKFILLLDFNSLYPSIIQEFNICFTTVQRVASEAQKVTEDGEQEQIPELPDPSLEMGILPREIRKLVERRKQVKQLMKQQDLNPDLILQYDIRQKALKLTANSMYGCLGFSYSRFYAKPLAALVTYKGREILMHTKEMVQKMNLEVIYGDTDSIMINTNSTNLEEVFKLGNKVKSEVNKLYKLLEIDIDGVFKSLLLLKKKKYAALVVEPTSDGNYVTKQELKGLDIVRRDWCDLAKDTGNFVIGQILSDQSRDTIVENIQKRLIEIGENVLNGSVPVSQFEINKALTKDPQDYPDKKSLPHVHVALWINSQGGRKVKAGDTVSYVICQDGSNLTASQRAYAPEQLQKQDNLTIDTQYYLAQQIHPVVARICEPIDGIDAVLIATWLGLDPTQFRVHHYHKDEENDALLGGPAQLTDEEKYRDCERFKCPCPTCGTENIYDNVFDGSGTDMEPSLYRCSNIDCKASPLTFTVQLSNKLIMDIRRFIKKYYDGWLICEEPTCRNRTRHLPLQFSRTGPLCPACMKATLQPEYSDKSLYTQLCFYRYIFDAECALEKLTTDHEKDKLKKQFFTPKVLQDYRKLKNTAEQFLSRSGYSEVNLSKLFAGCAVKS
Protocol: A comparison of in vitro DNA synthesis by viral and cellular DNA polymerases with MMdCTP as an alternative substrate. The results are shown graphically in FIG. 14 and compare HSV-1 DNA polymerase and human DNA polymerase alpha activity.
as §2, §3, §4

[5] = system: HSV-1, KOS; assay: HSV-1 KOS infectivity in Vero cells prior to washing of drugs; assay type: cell-based, Herpes simplex virus type 1; details: at less than 2120 μM (500 μg/ml)
Protocol: Vero cells were infected with HSV-1, KOS strain and then treated with MMdCyd in various quantities, and also with MMdCyd in various quantities together with a constant amount of H4 dUrd. The virus infectivity was observed and the results are given in Table 5 and are shown graphically in FIG. 3.
^a Virus infectivity was scored using following parameters: rounding
of cells, plaque formation and loss of monolayer structure.
^b Concentration of H4 dUrd used was 530 μM (125 μg/ml).

[6] = system: HSV-1, KOS; assay: HSV-1 KOS infectivity (virus yield) in Vero cells after removal of drugs; assay type: cell-based, Herpes simplex virus type 1; details: up to 2120 μM (highest concentration tested)
Protocol: Vero cells were infected with HSV-1, KOS strain and then samples of the infected cells were treated with MMdCyd in various quantities and with MMdCyd in various quantities together with 530 μM of H4 dUrd. Cells were washed twice with 0.4 ml of MEM to remove residual drug, overlaid with growth medium and incubated for 72 h. The virus was harvested by two cycles of freezing and thawing. The culture fluid from each treatment was pooled and assayed for virus yield.
^b H4 dUrd 530 μM (125 μg/ml) was added along with MMdCyd.

[7] = in vitro; details: monkey, vero cells
Protocol: The survival and viability of Vero cells grown in the presence of 2'-deoxyguanosine, H4 dUrd and deoxyguanosine+H4 dUrd was determined.

[8] = system: Deoxynucleoside Triphosphate (dNTP) Pools in Vero Cells Infected with Herpes Simplex Virus Type 1; assay: Deoxynucleoside triphosphate (dNTP) pools in HSV-1 infected Vero cells; assay type: cell-based
Protocol: Example 9 was repeated, except that the Vero cells subjected to the treatment had all been infected with HSV-1 KOS strain prior to the treatment.
^a Cells were infected with 10 PFU/cell of HSV1 KOS strain for one
hour. Treatments were given for seven hours.
^a Cells were infected with 10 PFU/cell of HSV1, KOS strain after
^b H4 dUrd in MEM was added immediately after adsorption and
^c H4 dUrd in MEM was added immediately after adsorption and
(§5) Vero cells and HSV-infected Vero cells were treated with dGUO and dGUO and H4 dUrd. The cells were then assayed for the presence of deoxynucleoside triphosphates. Untreated Vero cells were also assayed for the presence of deoxynucleoside triphophate to provide a control.
^c Cells were infected with 10 PFU/cell of HSV1 strain KOS for one

[9] = system: Deoxynucleoside Triphosphate (dNTP) Pools in Uninfected Vero Cells; assay: Deoxynucleoside triphosphate (dNTP) pools in uninfected (mock-infected) Vero cells; assay type: cell-based; details: Table 7, uninfected Vero cells, treatment 7 hours, ± S.E.
Protocol: Vero cells were treated with MMdCyd, H4 dUrd and MMdCyd+H4 dUrd. The cells were then assayed for the presence of deoxynucleoside triphosphates. Untreated Vero cells were also assayed for the presence of deoxynucleoside triphosphates, to provide a control.
^a Cells were mock infected for one hour. Different treatments were
^b Values are means of at least two assays of triplicate cell
as §5
Vero cells were treated with N-methyl-MMdCyd. The cells were then assayed for dNTP pools.

[10] = target: T1, HSV-1 DNA Polymerase; assay: Kinetic analysis / inhibition of HSV-1 DNA polymerase; assay type: biochemical
Protocol: as §1

[11] = nucleotide 0.039 μM (mixture: dCTP at this concentration + N-MeMMdCTP 0.625 μM)
[12] = nucleotide 0.078 μM (mixture: dCTP at this concentration + N-MeMMdCTP 0.625 μM)
[13] = nucleotide 0.156 μM (mixture: dCTP at this concentration + N-MeMMdCTP 0.625 μM)
[14] = nucleotide 0.312 μM (mixture: dCTP at this concentration + N-MeMMdCTP 0.625 μM)
[15] = nucleotide 0.625 μM (mixture: dCTP at this concentration + N-MeMMdCTP 0.625 μM)
[16] = nucleotide 1.25 μM (mixture: dCTP at this concentration + N-MeMMdCTP 0.625 μM)
[17] = nucleotide 2.50 μM (mixture: dCTP at this concentration + N-MeMMdCTP 0.625 μM)
[18] = nucleotide 5.0 μM (mixture: dCTP at this concentration + N-MeMMdCTP 0.625 μM)
[19] = Table 8, HSV-1 KOS infected Vero cells, 10 PFU/cell, treatment 7 hours, ± S.E.
[20] = Table 9, HSV-1 KOS infected, H4 dUrd pre-incubated 2 hours then removed, fresh MEM or MMdCyd

HSV-1 DNA Polymerase (Human alphaherpesvirus 1 strain 17)
Km [1]: 0.15 µM

Nc1ccn([C@H]2C[C@H](O)[C@@H](COP(=O)(O)OP(=O)(O)OP(=O)(O)O)O2)c(=O)n1 [dCTP, 2'-deoxycytidine triphosphate, reference compound]
[^3 H]dAMP incorporation representing 100% activity ([2]; 10 μM dCTP, HSV-1 DNA polymerase): 27355 cpm
incorporation into DNA / substrate ([2]; HSV-1 DNA polymerase): excellent substrate for DNA synthesis
cpm [^3 H]dAMP incorporated [3, 11]: 35 cpm
cpm [^3 H]dAMP incorporated [3, 12]: 118 cpm
cpm [^3 H]dAMP incorporated [3, 13]: 216 cpm
cpm [^3 H]dAMP incorporated [3, 14]: 527 cpm
cpm [^3 H]dAMP incorporated [3, 15]: 1171 cpm
cpm [^3 H]dAMP incorporated [3, 16]: 1603 cpm
cpm [^3 H]dAMP incorporated [3, 17]: 1554 cpm
cpm [^3 H]dAMP incorporated [3, 18]: 2032 cpm
[^3 H]dAMP incorporation representing 100% activity ([4]; 10 μM dCTP, Human DNA polymerase): 4059 cpm
incorporation into DNA / substrate [4]: excellent substrate for DNA synthesis

O=C1NC(O)CCN1[C@H]1C[C@H](O)[C@@H](CO)O1 (stereo partly shown) [H4 dUrd, tetrahydro-2'-deoxyuridine]
antiviral activity of H4 dUrd alone [5]: did not exhibit antiviral activity
antiviral activity of H4 dUrd [6]: did not exhibit antiviral activity; also recorded: no antiviral activity
viability at 1000 µM [7]: 100%
dATP pool [8, 19]: 94.7 ± 2.06 .rho.moles/10^6 cells
dCTP pool [8, 19]: 326 ± 12.6 .rho.moles/10^6 cells
dGTP pool [8, 19]: 101.3 ± 2.28 .rho.moles/10^6 cells
dTTP pool [8, 19]: 0.5 ± 0.34 .rho.moles/10^6 cells
dATP pool [8, 20]: 119.4 ± 3.1 .rho.moles/10^6 cells
dCTP pool [8, 20]: 312 ± 10.1 .rho.moles/10^6 cells
dGTP pool [8, 20]: 141 ± 2.6 .rho.moles/10^6 cells
dTTP pool [8, 20]: 2 ± 0.41 .rho.moles/10^6 cells
dATP pool [9]: 17.6 ± 1.28 .rho.moles/10^6 cells
dCTP pool [9]: 30.8 ± 1.20 .rho.moles/10^6 cells
dGTP pool [9]: 32 ± 1.3 .rho.moles/10^6 cells
dTTP pool [9]: 27.5 ± 1.25 .rho.moles/10^6 cells

CNc1nc(=O)n([C@H]2C[C@H](O)[C@@H](COP(=O)(O)OP(=O)(O)OP(=O)(O)O)O2)cc1COC [N-MeMMdCTP]
incorporation into DNA / substrate ([2]; HSV-1 DNA polymerase): not incorporated into DNA
interference with incorporation of dCTP into DNA ([3]; E. coli DNA polymerase): did not interfere with incorporation of dCTP into DNA
substrate for DNA polymerase ([3]; E. coli DNA polymerase): did not serve as a substrate
cpm [^3 H]dAMP incorporated [3, 11]: -18 cpm
cpm [^3 H]dAMP incorporated [3, 12]: -7 cpm
cpm [^3 H]dAMP incorporated [3, 13]: 3 cpm
cpm [^3 H]dAMP incorporated [3, 14]: -9 cpm
cpm [^3 H]dAMP incorporated [3, 15]: 3 cpm
cpm [^3 H]dAMP incorporated [3, 16]: -20 cpm
cpm [^3 H]dAMP incorporated [3, 17]: -17 cpm
cpm [^3 H]dAMP incorporated [3, 18]: -16 cpm
incorporation into DNA / substrate [4]: not incorporated into DNA

COCc1cn([C@H]2C[C@H](O)[C@@H](COP(=O)(O)OP(=O)(O)OP(=O)(O)O)O2)c(=O)nc1N [MMdCTP, 5-methoxymethyl-2'-deoxycytidine triphosphate]
utilization as alternative substrate ([^3 H] dAMP incorporation) ([2]; HSV-1 DNA polymerase, FIG. 14): readily utilized
preference as substrate versus dCTP ([2]; HSV-1 induced DNA polymerase): preferred as a substrate to dCTP
Ki [10]: 380 nM
inhibition of HSV-1 versus human DNA polymerase alpha ([10]; FIG. 16, HSV-1 compared with human DNA polymerase alpha): clear difference in effect
Km/Ki ([10]; Km of dCTP / Ki of MMdCTP): 0.4
utilization as alternative substrate ([^3 H] dAMP incorporation) ([4]; human DNA polymerase alpha, FIG. 14): little used
